Data as given in US20060058296A1, “Treatment of osteolytic lesions associated with multiple myeloma by inhibition of p38 map kinase” (Scios, Inc., priority 2003, published 2006).
Structures can show the parent of a compound that is named as a salt. Values belong to the compound of their own block, whether it stands above or below them.

Tests used:
[1] = tested on: primary murine marrow derived osteoclast precursors; experiment: Osteoclast differentiation, primary murine marrow derived osteoclast precursors; type: cell-based; settings: di-hydroxy vitamin D induced differentiation; for mature osteoclast formation: 100 nM; for mature osteoclast formation prevented: increasing doses
Protocol: Inhibition of p38α MAPK prevented osteoclast differentiation in two types of standard in vitro models. In the first, primary murine marrow derived osteoclast precursors are cultured in the presence of di-hydroxy vitamin D to induce differentiation. […] In the second model, primary human marrow-derived osteoclast precursors are cultured in the presence of dihydroxy vitamin D [(OH)2D3] to induce differentiation. In both cases, 100 nM of the exemplary p38 MAPK inhibitors prevents osteoclast formation as measured by tartrate resistant acid phosphatase (TRAP) staining or by staining with 23c6 (a mature osteoclast cell surface marker)(FIG. 14).

BMSC = BMSC viability, MTS assay of respiratory activity; type: cell-based, human; settings: tested up to 50-fold excess of active concentration
Protocol: Neither p38 MAPK inhibition nor high concentrations of p38 MAPK inhibitor (tested up to 50-fold excess of active concentration) affected BMSC viability (FIG. 4). Viability was measured using a standard enzymatic assay of respiratory activity, MTS (3-(4,5-dimethylthiazol-2-yl)-5-(3-carboxymethoxyphenyl)-2-(4-sulfophenyl)-2H-tetrazolium). Results obtained with the p38 MAPK inhibitor are in agreement with published results using a different p38α MAPK inhibitor.

U266B = experiment: MM cell proliferation, U266B; type: cell-based; settings: 72-hour exposure
RPMI = experiment: MM cell proliferation, RPMI; type: cell-based; settings: 72-hour exposure
ARH-77 = experiment: MM cell proliferation, ARH-77; type: cell-based; settings: ARH-77, 72-hour exposure
IM9 = experiment: MM cell proliferation, IM9; type: cell-based; settings: IM9, 72-hour exposure
TNF-α = experiment: LPS-induced TNF-α secretion in whole blood; type: cell-based, human
Protocol: Other in vitro assays can assess the production of TNF-a as a correlation to p38 MAP kinase activity. One such example is a Human Whole Blood Assay. In this assay, venous blood is collected from, e.g., healthy male volunteers into a heparinized syringe and is used within 2 hours of collection. Test compounds are dissolved in 100% DMSO and 1 μl aliquots of drug concentrations ranging from 0 to 1 mM are dispensed into quadruplicate wells of a 24-well microtiter plate (Nunclon Delta SI, Applied Scientific Co., San Francisco, Calif.). Whole blood is added at a volume of 1 ml/well and the mixture is incubated for 15 minutes with constant shaking (Titer Plate Shaker, Lab-Line Instruments, Inc., Melrose Park, Ill.) at a humidified atmosphere of 5% CO2 at 37° C. Whole blood is cultured either undiluted or at a final dilution of 1:10 with RPMI 1640 (Gibco 31800+NaHCO3, Life Technologies, Rockville, Md. and Scios, Inc., Sunnyvale, Calif.). At the end of the incubation period, 10 μl of LPS (E. coli 0111:B4, Sigma Chemical Co., St. Louis, Mo.) is added to each well to a final concentration of 1 or 0.1 μg/ml for undiluted or 1:10 diluted whole blood, respectively. The incubation is continued for an additional 2 hours. The reaction is stopped by placing the microtiter plates in an ice bath, and plasma or cell-free supernates are collected by centrifugation at 3000 rpm for 10 minutes at 4° C. […]

COX-2 mRNA = experiment: LPS-induced COX-2 mRNA; type: cell-based, human
PGE2 = PGE2 levels in LPS-induced human whole blood; type: cell-based
COX-2 enzyme = target: T1, COX-2 enzyme (Homo sapiens, UniProt P35354); experiment: Activity of purified COX-2 enzyme; type: biochemical
T1 sequence (P35354 18-604): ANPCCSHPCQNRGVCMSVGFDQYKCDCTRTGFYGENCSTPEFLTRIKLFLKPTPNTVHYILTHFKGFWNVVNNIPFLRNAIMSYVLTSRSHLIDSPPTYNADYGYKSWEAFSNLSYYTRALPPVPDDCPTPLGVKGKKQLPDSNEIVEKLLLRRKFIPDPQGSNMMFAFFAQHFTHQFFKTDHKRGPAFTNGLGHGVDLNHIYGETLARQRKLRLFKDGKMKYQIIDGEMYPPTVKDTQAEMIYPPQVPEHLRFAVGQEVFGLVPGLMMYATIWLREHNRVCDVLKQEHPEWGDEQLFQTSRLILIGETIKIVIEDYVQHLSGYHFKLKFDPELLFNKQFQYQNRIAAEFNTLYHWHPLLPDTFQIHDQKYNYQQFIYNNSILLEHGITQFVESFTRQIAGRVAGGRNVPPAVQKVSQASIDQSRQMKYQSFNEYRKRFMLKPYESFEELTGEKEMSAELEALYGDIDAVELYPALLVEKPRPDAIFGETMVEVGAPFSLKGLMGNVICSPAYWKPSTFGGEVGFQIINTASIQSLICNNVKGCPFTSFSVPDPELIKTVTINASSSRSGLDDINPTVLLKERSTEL

COX-1 = target: T2, COX-1 (Homo sapiens, UniProt P23219); experiment: Activity of platelet-derived preparation of COX-1; type: biochemical
T2 construct: a platelet-derived preparation of COX-1; from tissue; host or cells: platelets

IL-1β = experiment: LPS-induced IL-1β release in human whole blood; type: cell-based; settings: human whole blood (undiluted)
Description: IL-1β illustrates the importance of amplification loops in myeloma-induced cytokine stimulation. IL-1β plays a well-documented role in the induction of multiple cytokines in a “cytokine network” of feedback loops, including strong induction of IL-6. The ability of IL-1 to increase mRNA expression and induce secretion of the MM-relevant cytokines from MM/BMSC cultures is evidence of this role.

IL-11 = experiment: IL-1 and TGFβ induction of IL-11 in BMSC and MM/BMSC cultures; type: cell-based, human; settings: 100 nM
Description: p38 MAPK controls secretion of these factors in-vitro in systems representing the BM milieu. […] IL-11 elicits pro-fibrotic responses and promotes osteoclast-driven bone resorption.

RANKL mRNA = RANKL mRNA in BMSC and MM/BMSC cultures; type: cell-based, human; settings: 100 nM
Protocol: In addition, 100 nM of these p38 MAPK inhibitors blocks the weaker induction of RANKL by IL-6 in BMSC.

MIP-1α = MIP-1α production in MM/BMSC co-cultures; type: cell-based, human
Description: MIP-1α elevation in MM patient serum correlates with disease severity. Unlike many MM-relevant cytokines present in the marrow microenvironment, which are produced mainly by the activated BMSC, MM cells are the primary source of MIP-1α. IL-1 further induces MIP-1α production.

[2] = tested on: arthritic lesions in the hind paws; experiment: Chick type II collagen arthritis in rats with established disease; type: in vivo, rat
Protocol: Rats treated intradermally with chick type II collagen develop arthritic lesions in the hind paws similar to human arthritic joints with respect to accumulation of pannus tissue, presence of inflammatory cells, and increased expression of inflammatory cytokines. […] Animals were scored daily by an observer blinded with respect to treatment regimen. At the completion of the study on Day 28, radiographic images were analyzed in a blinded manner, based upon the extent of soft tissue swelling, joint space narrowing, and bone destruction. Animal weights at the beginning and end of the study were also recorded, as weight loss is associated with disease progression in this model.

[3] = tested on: human myeloma (RPM18266) tumor; experiment: Human myeloma xenograft plasmacytoma model in beige-nude-xid mouse; type: in vivo
Protocol: The p38 MAPK signaling pathway plays an important role in different pathological conditions and specific inhibitors of p38 alpha and beta MAPK block production of the major inflammatory cytokines. Human multiple myeloma (MM) is an incurable neoplasm of terminally differentiated B cells and MM disease progression is affected by immunoregulatory elements such as IL-6 and other cytokines. […] Treatment (90 mg/kg/bid by oral gavage) is initiated in mice with palpable tumor size (˜200 mm^3) as judged by tumor volume.

[4] = tested on: osteolytic lesions associated with multiple myeloma; experiment: Treatment of a patient with osteolytic lesions associated with multiple myeloma; type: in vivo, human; settings: therapeutic amount
Description: A patient is diagnosed with multiple myeloma and presents with a number of holes or osteolytic lesions. The osteolytic lesions are caused by the rapid growth of myeloma cells, which displace osteoblasts, and disrupting the balance of bone creation and destruction. […] Osteoblast activity is increased relative to osteoclast activity. Pain from bone destruction, fracture and the like is reduced. The osteolytic lesions are caused by the rapid growth of myeloma cells, which displace osteoblasts, and disrupting the balance of bone creation and destruction. […] Osteoblast activity is increased relative to osteoclast activity. Pain from bone destruction, fracture and the like is reduced.

VEGF = VEGF secretion from MM contact-activated BMSC; type: cell-based, human
Description: p38 MAPK controls secretion of these factors in-vitro in systems representing the BM milieu.
In addition to promoting vascularization, VEGF is a growth-supporting factor for MM cells. Neovascularization of MM tumors in the marrow allows growth beyond diffusion limitations for gas and nutrient exchange. VEGF is secreted from MM contact-activated BMSC, and this secretion is inhibited by p38 MAPK inhibitor Compound 4 (FIG. 10).

T2 sequence (P23219 24-599): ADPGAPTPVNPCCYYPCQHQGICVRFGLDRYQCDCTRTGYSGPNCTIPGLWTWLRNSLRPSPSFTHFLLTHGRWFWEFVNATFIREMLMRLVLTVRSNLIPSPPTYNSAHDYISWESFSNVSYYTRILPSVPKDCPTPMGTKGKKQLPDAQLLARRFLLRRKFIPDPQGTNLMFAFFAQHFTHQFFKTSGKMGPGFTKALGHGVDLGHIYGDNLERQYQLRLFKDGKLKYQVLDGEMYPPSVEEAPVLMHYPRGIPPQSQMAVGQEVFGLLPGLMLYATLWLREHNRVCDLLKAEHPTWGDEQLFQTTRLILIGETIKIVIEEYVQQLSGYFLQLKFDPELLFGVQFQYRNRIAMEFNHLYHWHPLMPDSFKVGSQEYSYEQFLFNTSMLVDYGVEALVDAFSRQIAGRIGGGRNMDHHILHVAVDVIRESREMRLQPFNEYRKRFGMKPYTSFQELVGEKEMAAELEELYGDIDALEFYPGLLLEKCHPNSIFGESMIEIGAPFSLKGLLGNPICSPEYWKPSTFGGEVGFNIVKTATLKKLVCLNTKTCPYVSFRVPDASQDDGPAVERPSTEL

Compound: CN(C)C(=O)C(=O)c1c[nH]c2cc(Cl)c(C(=O)N3CCC(Cc4ccc(F)cc4)CC3)cc12 [Compound 162]
mature osteoclast formation [1]: complete blockage | mature osteoclast formation prevented [1]: in a dose dependent manner

activity of the purified COX-2 enzyme (COX-2 enzyme): did not directly inhibit | activity of a platelet-derived preparation of COX-1 (COX-1): nor did it inhibit
Compound: C[C@@H]1CN(Cc2ccc(F)cc2)[C@@H](C)CN1C(=O)c1cc2c(C(=O)C(=O)N(C)C)cn(C)c2cc1Cl [Compound 57]
BMSC viability (BMSC): Neither p38α MAPK inhibition nor high concentrations of Compound 57 (tested up to 50-fold excess of active concentration) affected BMSC viability | reduction in proliferation (U266B): about 20% | reduction in proliferation (RPMI): about 20% | reduction in proliferation (ARH-77): about 20% | reduction in proliferation (IM9): about 20% | LPS-induced TNF-α secretion (TNF-α): dose-dependent reduction | LPS-induced COX-2 mRNA (COX-2 mRNA): inhibited | PGE2 levels (PGE2): reduced | LPS-induced IL-1β release (IL-1β): dose-dependent reduction | IL-1 and TGFβ induction of IL-11 at the mRNA and protein levels (IL-11; BMSC cultures): blocked | IL-1 and TGFβ induction of IL-11 at the mRNA and protein levels (IL-11; MM/BMSC cultures): blocked | basal expression of RANKL mRNA (RANKL mRNA): blocked | RANKL mRNA induction by TGFβ and IL-1 (RANKL mRNA; BMSC cultures): blocked | induction of RANKL by IL-6 (RANKL mRNA; BMSC): blocks | RANKL mRNA induction by TGFβ and IL-1 (RANKL mRNA; MM/BMSC cultures): blocked | IL-1-induced production of MIP-1α (MIP-1α): substantially reduce | untreated production of MIP-1α (MIP-1α): substantially reduce | mature osteoclast formation [1]: complete blockage | mature osteoclast formation prevented [1]: in a dose dependent manner | clinical score ([2]; 10 mg/kg orally once a day): intermediate between the vehicle and 40 mg/kg groups | clinical score ([2]; 40 mg/kg orally once a day, from third day of treatment to Day 28, vs vehicle): statistically significant improvement | HSP27 expression in tumor cells ([3]; mouse, in vivo): significantly reduce | p38 expression in tumor cells ([3]; mouse, in vivo): significantly reduce | tumor volume ([3]; palpable tumors (~200 mm^3), 90 mg/kg/bid oral gavage, 21 days): significantly reduced | tumor volume ([3]; treatment initiated at pronounced tumor size (~800 mm^3)): significant reduction | number of neoformed microvessels, histological assessment ([3]; vs vehicle): significant reduction | tumor volume, histological assessment at the end of dosing ([3]; vs vehicle): significant reduction

Compound: C[C@@H]1CN(Cc2ccc(F)cc2)[C@@H](C)CN1C(=O)c1cc2c(C(=O)C(=O)N(C)C)cn(C)c2cc1Cl [Compound 57 hydrochloride salt]
pain from bone destruction, fracture and the like [4]: reduced

Compound: COC(=O)C(=O)c1cn(C(=O)c2ccc(Cl)cc2)c2cc(OC)c(C(=O)N3CCC(Cc4ccccc4)CC3)cc12 [Compound 4]
VEGF secretion (VEGF): inhibited
